From US20130149250A1, “HYPERPOLARIZED AGENTS FOR MRI CHARACTERIZATION OF REDOX SYSTEMS IN VIVO” (The Regents of the University of California, priority 2011, published 2013)
“Also recorded” adds a separate entry of the source.

How the values were obtained:
[1] = 11.7 T NMR studies (T1 of hyperpolarized ascorbates); format: physicochemical; settings: spin-lattice relaxation of C1 carbon at 11.7 T; mean±SD
Procedure: NMR studies were performed on an 11.7 T Varian NOVA spectrometer (125 MHz ^13C, Varian Instruments) using a 10 mm ^15N/^31P/^13C broadband direct detect probe. Thermal and dynamic hyperpolarized spectra for [1-^13C] DHA and [1-^13C] Vitamin C were obtained as previously described, and used to calculate T1's and signal enhancements. For NMR studies of the reduction of [1-^13C] DHA to [1-^13C] Vitamin C, hyperpolarized [1-^13C] DHA was reacted with an excess of sodium cyanoborohydride (NaBH3CN).
(§1) In vitro methods to interrogate redox chemistry have relied on designer redox-sensitive fluorescent proteins (yellow- or green fluorescent protein) incorporating an artificial dithiol-disulfide pair, or on detection of ROS themselves via chemical switching. In general, fluorescent probes have limited clinical translation given poor tissue penetration; making MR-compatible hyperpolarized ^13C probes an attractive alternative. […] The material was polarized by using a DNP approach and dissolved with a hot water/EDTA solution, with T1's calculated as previously described. […] Vitamin C carbons are tabulated at both 11.7 T and 3 T, with the longest recorded T1 that of [1-^13C] […] Vitamin C were measured as 5.9±0.5% and 3.6±0.1% respectively, representing signal enhancements on the order of approximately 24,000 and 15,000-fold relative to thermal equilibrium at 3 T. […]

[2] = T1 studies of hyperpolarized ascorbates on a 3 T MRI scanner; format: physicochemical; settings: spin-lattice relaxation of C1 carbon at 3 T; mean±SD
Procedure: (§2) The RF coil used in these experiments was a dual-tuned ^1H-^13C coil with a quadrature ^13C channel and linear ^1H channel construction used in ^13C mouse imaging studies. ^13C MRSI studies were carried out as previously published. 350 μl (mice) or 2 mL (rats) of a hyperpolarized 15 mM [1-^13C] DHA solution were injected similar to previously described methods for [1-^13C]pyruvate. Similar experiments were performed on a set of normal mice using hyperpolarized [1-^13C] Vitamin C at 50 mM.
as §1

normal mice [3] = experiment: Dynamic 13C MR spectroscopy after injection of hyperpolarized probe in normal mice; format: in vivo, mouse
Procedure: as §2
Evidence of in vivo transformation was determining having obtained data validating hyperpolarized [1-^13C] DHA as a redox probe. The transport of DHA in vivo occurs by a mechanism analogous to that of glucose, by facilitated diffusion using GLUT1, GLUT3, and GLUT4. Since glucose is known to compete with the uptake of DHA, in vivo experiments were performed on animals (mice and rats) fasted overnight. […] Dynamic MRSI studies were carried out as previously published. 350 μl of a hyperpolarized 15 mM [1-^13C] DHA solution were injected similar to previously described methods for [1-^13C] pyruvate, in normal mice with a ^13C urea phantom present for chemical shift reference. In a separate set of normal mice, similar experiments were performed using hyperpolarized [1-^13C] Vitamin C at a slightly higher concentration, 50 mM. […] DHA in a normal mouse. The DHA resonance at 174 ppm reached a maximum at 19±1.7 secs post injection. […] Vitamin C in vivo. This chemical shift was confirmed both in vitro at neutral pH using ^13C urea as a reference, as well as in vivo with hyperpolarized [1-^13C] Vitamin C itself injected in a separate animal.

[4] = DNP hyperpolarization (HyperSense, OX063 trityl radical): build-up and polarization; format: physicochemical; settings: for Percent Polarization: DNP, 15 mM OX063; for Percent Polarization / Buildup Constant: mean±SD; for Buildup Constant: solid-state build-up constant
TRAMP mice = settings: mouse, in vivo
Procedure: as §2
(§3) Tissues with high exposure to environmental toxins, namely the liver, kidney and lungs, are known to be rich in GSH and were considered the most likely source for the hyperpolarized [1-^13C] Vitamin C signal observed in vivo. In addition, a contribution from highly glycolytic tissues was anticipated, given the rapid transport properties of dehydroascorbate. Analogous to experiments performed previously using hyperpolarized [1-^13C]pyruvate, 3D MRSI studies were conducted on a series of normal mice (n=3), TRAMP mice (n=3), and rats (n=3) using a dual-tuned RF coil.

rat brains = settings: in vivo
Procedure: as §2, §3

normal mice [5] = settings: mouse, in vivo
Procedure: as §2, §3

TRAMP tumors [6] = experiment: HP [1-13C] DHA 3D MRSI in TRAMP mice (Example 4); format: in vivo, mouse
Excerpt: Hyperpolarization and dissolution of [1-^13C] DHA: [1-^13C] DHA dimer was polarized and dissolved.

MCD mouse liver = experiment: HP DHA 13C MRSI of liver in methionine choline deficient (MCD) diet NAFLD mouse model; format: in vivo
Procedure: Prior to and post diet, high-resolution T2 and fat-water imaging was conducted at 14 T using a Varian WB600 micro-imager and 40 mm 1H millipede coil (Varian Instruments, Palo Alto, Calif.). Lipid percentage maps were calculated from fat and water images acquired using a conventional spin-echo sequence using the Dixon method. 350 μL of hyperpolarized DHA was injected each mouse (n=4) at baseline and 2 weeks of MCD diet using a Hypersense (Oxford Instruments). 13C MRSI data was acquired using an EPSI readout, variable flip angle scheme, matrix size 16×8×8 and final voxel resolution of 6 mm isotropic on a 3 T GE MRI (GE Healthcare, Waukesha, Wis.) equipped with a multinuclear package and dual-tuned 1H-^13C imaging coil. […] Ratios of HP DHA and VitC were calculated from the peak integrals in 3D MRSI data. Mice were then sacrificed and liver tissue was sectioned for staining with hematoxylin and eosin (H&E, structure) and Oil Red (lipid presence). Livers of normal mice were used for histologic comparison.

TRAMP tumors [7] = settings: TRAMP mice, PET 50 minutes post injection
Procedure: FDG-PET: PET scans were performed on a small animal PET/CT scanner (Inveon, Siemens Healthcare, Malvern, Pa.). Mice were fasted overnight, anesthetized, and injected intravenously with 150-170 uCi FDG in 0.1-0.2 mL saline. PET images were acquired 50 minutes post injection in one 600 second frame. CT images were acquired in 120 projections of continuous rotation to cover 220° with x-ray tube operating at 80 kVp, 0.5 mA, and 175 ms exposure time. The matrix size of the reconstructed CT images was 512×512×662 with an isotropic voxel size of 0.191×0.191×0.191 mm^3 PET images were reconstructed using a manufacturer-provided ordered subsets expectation maximization (OS-EM) algorithm resulting in a 128×128×159 matrices with a voxel size of 0.776×0.776×0.796 mm^3 ROIs were drawn in both the tumors and surrounding tissue to calculate relative tumor signals.

In the case of `O=[13C]1O[C@H]([C@@H](O)CO)C(O)=C1O` [[1-^13C] Vitamin C, [1-^13C] ascorbic acid], the “11.7T T1” value [1] is reported as 16.0 ± 0.8 s, the “3T T1” value [2] is reported as 29.2 ± 2.5 s and the “in vivo oxidation of hyperpolarized [1-13C] Vitamin C to [1-13C] DHA” value (normal mice [3]; 50 mM hyperpolarized [1-13C] Vitamin C, normal mice) is reported as “trace oxidation; also recorded: trace conversion”. For the same molecule, the “Percent Polarization” value [4] was 3.6±0.1% and the “Buildup Constant” value [4] was 1756 ± 97 s.

In the case of `O=C1C(=O)[13C](=O)O[C@@H]1[C@@H](O)CO` [[1-^13C] DHA, [1-^13C] dehydroascorbate], the “VitC/Total Carbon” value (TRAMP mice) is reported as 0.29±0.09, the “VitC/Total Carbon” value (rat brains) is reported as 0.51±0.1 and the “Vitamin C signal” value (normal mice [5]) is reported as “no Vitamin C signal was observed”. For the same molecule, the “11.7T T1” value [1] was 20.5 ± 0.9 s, the “time of maximum of DHA resonance (174 ppm) post injection” value (normal mice [3]; mouse, in vivo) was 19 ± 1.7 s and the “time of maximum of metabolite resonance (177.8 ppm, [1-13C] Vitamin C)” value (normal mice [3]; mouse, in vivo) was 29 ± 1.7 s. For the same molecule, the “Percent Polarization” value [4] was 5.9±0.5%, the “signal enhancement relative to thermal equilibrium” value ([4]; at 3 T) was “approximately 24,000 fold” and the “Buildup Constant” value [4] was 1120 ± 50 s. The “Total HP 13C in tumors relative to surrounding tissue” value (TRAMP tumors [6]; TRAMP mice) was 2.1±0.4, the “tumor HP VitC/[VitC+DHA] relative to surrounding tissue” value (TRAMP tumors [6]; TRAMP mice) was 7.0±2.3 and the “HP VitC (ratio of VitC to total HP signal)” value (TRAMP tumors [6]; TRAMP tumors (N=4)) was 0.23±0.03. The “HP VitC (ratio of VitC to total HP signal)” value (TRAMP tumors [6]; benign prostate, P=0.001) was 0.06±0.03, the “HP VitC (ratio of VitC to total HP signal)” value (TRAMP tumors [6]; surrounding tissues, P=0.005) was 0.05±0.02 and the VitC/DHA ratio (MCD mouse liver; after 2 weeks on MCD diet) was 0.46±0.1. The “VitC/VitC+DHA” value (MCD mouse liver; after 2 weeks on MCD diet) was 0.30±0.5, the “decrease in the VitC/DHA ratio from baseline” value (MCD mouse liver; after 2 weeks on MCD diet, P=0.005) was 92% and the “decrease in the VitC/VitC+DHA ratio from baseline” value (MCD mouse liver; after 2 weeks on MCD diet, P=0.01) was 48%. The VitC/DHA ratio (MCD mouse liver; baseline) was 0.98±0.09 and the “VitC/VitC+DHA” value (MCD mouse liver; baseline (normal liver)) was 0.49±02.

For `O=C[C@H]([18F])[C@@H](O)[C@H](O)[C@H](O)CO` [FDG, 2-18F-2-deoxy-D-glucose], the “18F signal in regions of tumor relative to surrounding regions” value (TRAMP tumors [7]) was 6.8±3.6.
